Experimental data published in patent publication US20260183302A1, “PDK1 REGULATORY COMPOUND AND COMPOSITION CONTAINING THE SAME” (PROVIBIO CO., LTD., priority 2024, published 2026).

Test system: T cells isolated from mouse spleens
Experiment: T cell proliferation inhibition (CFSE flow cytometry, anti-CD3/anti-CD28 stimulation)
Format: cell-based, C57BL/6 mice
Settings: three days
Procedure: To verify the T cell proliferation inhibitory effect of the compounds according to the present invention, the following experiment was performed based on flow cytometry analysis using carboxyfluorescein diacetate succinimidyl ester (CFSE), a fluorescent dye that binds to intracellular molecules via covalent bonds.
Spleens were extracted from 7-week-old C57BL/6 mice, ground, and then separated into single cells using a strainer (40 μm pore size, SPL). Red blood cells were removed using ACK (Ammonium-Chloride-Potassium) lysis buffer to isolate white blood cells.
Finally, using a MACS Magnetic Stand and LS column, T cells were isolated from the spleen.
The T cells isolated from the spleen were resuspended in 1 mL of free medium (RPMI-1640+200 U/mL penicillin+200 μg/mL streptomycin), and 0.3 μL of CFSE (10 mM) was added. The mixture was incubated at 37° C. for 5 minutes.
Free medium (10 mL) was added to stop the reaction, and the cells were centrifuged to obtain the cell pellet.
RPMI 1640 medium containing 10% FBS, 100 U/mL penicillin, 100 μg/mL streptomycin, and resuspended the cells. The cells were then seeded into a 96-well plate at a density of 2× 10^5 cells per well and activated with CD3 and CD28 antibodies (0.5 μg/mL each) to activate T cells.
The compound diluted in DMSO was added at concentrations of 10 nM, 100 nM, 1 μM, 10 μM, 30 μM, and 50 μM, with three wells per concentration, and cultured at 37° C. and 5% CO2 for three days. The cells were then analyzed using a FACS Canto instrument.
The proliferation inhibition rate (%) was calculated using the following formula: […]

Compound | Proliferation inhibition rate (%) (concentration 1 μM) | Proliferation inhibition rate (%) (concentration 10 μM) | Proliferation inhibition rate (%) (concentration 30 μM) | Proliferation inhibition rate (%) (concentration 50 μM) | Proliferation inhibition rate (%) (concentration 10 nM, listed as PBK-2024-004, 0.01 µM) | Proliferation inhibition rate (%) (concentration 100 nM, listed as PBK-2024-004, 0.1 µM) | Proliferation inhibition rate (%) (concentration 1 μM, listed as PBK-2024-004, 1 µM) | Proliferation inhibition rate (%) (concentration 10 μM, listed as PBK-2024-004, 10 µM) | Proliferation inhibition rate (%) (concentration 100 nM) | Proliferation inhibition rate (%) (concentration 10 nM)
Nc1ncccc1C(=O)NCCCCCCCCCCCCN1CCC2CCCCC2C1 (stereo not shown) [Compound 16, 2-Amino-N-(12-(octahydroisoquinolin-2 (1H)-yl)dodecyl) nicotinamide] | 100.00% | 100.00% | 100.00% | 100.00% | – | – | – | – | – | –
Nc1ncccc1C(=O)NCCCCCCCCCCCCN1CCc2ccccc2C1 [Compound 17, 2-Amino-N-(12-(3,4-dihydroisoquinolin-2 (1H)-yl)dodecyl) nicotinamide] | – | – | – | – | 0.00% | −14.00% | 100.00% | 100.00% | – | –
CN(CCCCCCCCCCCCNC(=O)c1cccnc1N)C1CCCCC1 [Compound 34, 2-Amino-N-(12-(cyclohexyl(methyl)amino)dodecyl) nicotinamide] | 100.00% | 100.00% | 100.00% | 100.00% | – | – | – | – | 100.00% | –
CC1CN(CCCCCCCCCCCCNC(=O)c2cccnc2N)C(C)CN1.Cl (stereo not shown) [Compound 36, 2-Amino-N-(12-(2,5-dimethylpiperazin-1-yl)dodecyl) nicotinamide hydrochloride] | 100.00% | 100.00% | 100.00% | 100.00% | – | – | – | – | 100.00% | –
Nc1ncccc1C(=O)NCCCCCCCCCCCCN1CCC(O)CC1 [Compound 48, 2-Amino-N-(12-(4-hydroxypiperidin-1-yl)dodecyl) nicotinamide] | 100.00% | 100.00% | 100.00% | 100.00% | – | – | – | – | 100.00% | –
CN(CCCCCCCCCCCCNC(=O)c1cccnc1N)C(C)(C)C [Compound 53, 2-Amino-N-(12-(tert-butyl(methyl)amino)dodecyl) nicotinamide] | 100.00% | 100.00% | 100.00% | 100.00% | – | – | – | – | 100.00% | –
Nc1ncccc1C(=O)NCCCN1CCOCC1 [Compound 78, 2-amino-N-(3-morpholin-4-yl-propyl) nicotinamide] | −3.73% | 0.68% | 4.51% | 8.76% | – | – | – | – | −4.19% | −7.14%
COC1CCN(CCCCCCCCCCCCNC(=O)c2cccnc2N)CC1 [Compound 94, 2-amino-N-(12-(4-methoxypiperidin-1-yl)dodecyl) nicotinamide] | 100.00% | 100.00% | 100.00% | 100.00% | – | – | – | – | 100.00% | –
Nc1ncccc1C(=O)NCCCCCCCCCCCCN1CCN(C=O)CC1 [Compound 97, 2-amino-N-(12-(4-formylpiperazin-1-yl)dodecyl) nicotinamide] | 100.00% | 100.00% | 100.00% | 100.00% | – | – | – | – | – | –
